We go through 1 compound from patent US20220251096A1, “7,8-DIHYDRO-4H-PYRAZOLO[4,3-c]AZEPINE-6-ONE COMPOUNDS” (Eli Lilly and Company, priority 2019, published 2022).

In this assay the test system is Kasumi (AML1-ETO). The experiment in a line: Cell growth inhibition assay, Kasumi (AML1-ETO). It counts as cell-based. The conditions noted are these: 168 h, 7 days. How it is done:
Tumor cell lines are plated onto 96-well, black wall poly-D-lysine plates (Corning #354640), and incubated at 37° C., 5% CO2 for 18-24 hours. Compound was added at 1:3 dilutions in DMSO and cells were incubated at 37° C., 5% CO2 for 7 days. For adherent cell lines, cells were fixed and stained with propidium iodide and scanned on Acumen (channel 3 setting). For suspension cell lines, cell growth was monitored using Cell Titer-Glo reagent.

As usually defined, the IC50 is the point on the concentration scale where inhibition reaches its midpoint. A lower IC50 goes with greater potency.

`CCNC(=O)c1ccc(-c2cc3cccc(-c4nn(C)c5c4CN(C)C(=O)CC5)c3cn2)cn1` [Example 2, 5-[8-(1,5-Dimethyl-6-oxo-7,8-dihydro-4H-pyrazolo[4,3-c]azepin-3-yl)-3-isoquinolyl]-N-ethyl-pyridine-2-carboxamide] had an IC50 of 8 nM.
